# Reference: patent US20110111016A1, “NON-DNA BASE-CONTAINING POLYNUCLEOTIDE COMPOSITIONS AND THEIR USE FOR THE MODULATION OF IMMUNE RESPONSES” (priority 2009, published 2011)
# Strand notation (5' to 3'): a small letter for the sugar, then the base; units joined by * are phosphorothioate-linked, units joined directly phosphodiester-linked; [ ] holds rarer units or linkages, { } end groups; capitals alone tell only the bases. d = 2'-deoxy (DNA)
# Columns and labels:
# Assay type in all cases: cell-based
# human PBMC [1] = test: Induction of cytokines and chemokines from human PBMC, comparison with CpG polynucleotides (Milliplex MAP kit); conditions: for Cytokine, IL-6 / Cytokine, IL-10 / Cytokine, MCP-1 / Cytokine, RANTES (CCL5): human PBMC culture supernatant, 48 h, final concentration 10 μg/mL; for Chemokine (MCP-1, RANTES) inducing activity towards human PBMC (in words) / Interleukin (cytokine) inducing activity towards human PBMC (in words): in comparison to LPS and MCC, Table 14
# Method: LPS and MCC were included as positive controls as described in Example 7. PBMC were isolated from whole blood using standard Ficoll-Paque Plus (GE Healthcare Life Sciences, Baie d'Urfé, QC, Canada) gradient centrifugation, and placed in tissue culture plates at a concentration of 1×10^6 cells/mL (total volume: 1 mL in RPMI 1640 medium containing 10% heat-inactivated FBS (both from Wisent, St-Bruno, QC, Canada) and 50 μg/mL gentamycin sulfate (Sigma-Aldrich Canada, Oakville, ON, Canada). Non-DNA base-containing polynucleotide SEQ ID NOs: 1, 2, 3, 4, 5, 6, 7, 8 and 9 were added to separate wells to give a final concentration of 10 μg/mL, LPS was added to give a final concentration of 10 μg/mL, and the non-CpG 4010, CpG 2336, CpG 2429 and CpG 7909 polynucleotides, SEQ ID NOs: 31, 33, 35 and 34, respectively, were added to give a final concentration of 10 μg/mL.
# The cells were then cultivated for 48 h. Cytokines (interleukins IL-6 and IL-10, chemokines MCP-1 and RANTES) in the culture supernatant were measured using a Milliplex™ MAP kit (Millipore Corporation, Billerica, Mass., USA) on a Bio-Plex 200 system (Bio-Rad Laboratories, Hercules, Calif., USA). MCP-1, also known as monocyte chemotactic protein, is an essential chemokine required for effective monocyte and myeloid dendritic cell activation and trafficking across endothelial and epithelial barriers (see for example Henkel et al, 2004 Ann. Neurol. 55:221-235), and RANTES (Regulated on Activation, Normal T cell Expressed and Secreted, now more commonly known as CCL5) is produced by memory phenotype T cells and is chemotactic for and activates T-cells (see for example Swanson et al, 2002 Immunity 17:605-615).
# human TLR9 = molecular target: T1, human TLR9 (Homo sapiens, UniProt Q9NR96); test: NF-κB activation (secreted alkaline phosphatase reporter) in HEK293 cells expressing human TLR9; conditions: HEK293/hTLR9 cell line; at 100 ng/mL; 16-20 hours
# T1 construct: host or cells: HEK293
# T1 sequence (Q9NR96 26-1032): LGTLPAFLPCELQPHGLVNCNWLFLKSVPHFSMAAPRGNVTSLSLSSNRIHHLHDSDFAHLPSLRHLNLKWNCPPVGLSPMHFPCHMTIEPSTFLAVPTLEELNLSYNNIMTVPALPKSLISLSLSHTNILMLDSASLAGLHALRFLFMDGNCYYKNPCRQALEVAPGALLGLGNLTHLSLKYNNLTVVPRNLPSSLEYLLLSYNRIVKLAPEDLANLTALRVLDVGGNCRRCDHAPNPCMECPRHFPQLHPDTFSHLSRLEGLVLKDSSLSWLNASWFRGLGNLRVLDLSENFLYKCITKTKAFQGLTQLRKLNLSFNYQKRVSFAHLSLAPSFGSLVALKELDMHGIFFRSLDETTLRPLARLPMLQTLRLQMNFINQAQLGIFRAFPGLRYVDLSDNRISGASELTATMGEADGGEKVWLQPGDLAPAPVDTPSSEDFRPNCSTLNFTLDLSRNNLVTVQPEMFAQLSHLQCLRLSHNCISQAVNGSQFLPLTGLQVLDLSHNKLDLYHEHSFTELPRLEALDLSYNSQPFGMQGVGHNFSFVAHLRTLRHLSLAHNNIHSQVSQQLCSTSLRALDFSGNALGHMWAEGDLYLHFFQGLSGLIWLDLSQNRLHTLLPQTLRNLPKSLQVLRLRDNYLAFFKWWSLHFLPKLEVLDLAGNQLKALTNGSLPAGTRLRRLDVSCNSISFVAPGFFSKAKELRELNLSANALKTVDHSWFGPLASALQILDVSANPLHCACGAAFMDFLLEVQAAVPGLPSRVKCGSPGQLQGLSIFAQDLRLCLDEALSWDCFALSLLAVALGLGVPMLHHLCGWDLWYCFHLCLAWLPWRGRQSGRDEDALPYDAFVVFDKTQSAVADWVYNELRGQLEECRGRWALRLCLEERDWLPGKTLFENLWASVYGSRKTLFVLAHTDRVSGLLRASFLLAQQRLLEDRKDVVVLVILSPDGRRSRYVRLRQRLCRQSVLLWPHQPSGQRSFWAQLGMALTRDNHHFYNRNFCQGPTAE
# Method: Toll-like receptors (TLR) are known to interact with a number of natural and synthetic molecules that can function as immune adjuvants. Examples of these molecules are Poly (I:C) polynucleotides, lipopolysaccharide and CpG-containing polynucleotides. The interaction of non-DNA base-containing polynucleotides (SEQ ID NOs: 1-3) to interact with TLR and induce down-stream signaling was tested by assessing NF-κB activation in HEK293 cells expressing human TLR2, 3, 4, 5, 7, 8 and 9. TLR engagement was determined by measurement of secreted alkaline phosphatase, under the control of a reporter inducible by NF-κB. Appropriate positive controls were used for each TLR. […] HEK293 cells containing the appropriate TLR and NF-κB reporting system (InvivoGen, San Diego, Calif., USA) were placed in wells of 96 well plates (25,000-50,000 cells, in a final volume of 200 μL medium designed for the detection of NF-κB induced secreted alkaline phosphatase expression), and incubated with non-DNA base-containing polynucleotides or positive controls for 16-20 hours. TLR activating activity was determined by measurement of absorbance at 650 nm wavelength using a Coulter AD340C absorbance detector. The results shown are expressed as Optical Density (OD).
# human PBMC [2] = test: Induction of cytokines from human PBMC (ELISA cytokine capture assay); conditions: PBMC of 3 healthy adults, 48 h; increase two-fold that of background control; SEQ ID NOs 1-3 100 μg/mL, CpG 2006 and MCC 1-100 μg/mL, LPS 10 μg/mL
# Excerpt: A number of immune adjuvants are known to be capable of eliciting cytokines from human PBMC cells. Examples of such adjuvants are alum, lipopolysaccharide, monophosphoryl lipid A, CpG-containing polynucleotides and non-CpG-containing ODN's, as well as mycobacterial cell wall-DNA complex (MCC). […] PBMC were isolated from whole blood using standard Ficoll-Paque (GE Healthcare Life Sciences, Baie d'Urfé, QC, Canada) gradient centrifugation, and placed in tissue culture plates at a concentration of 10^6 cells/mL (total volume: 1 mL in RPMI 1640 medium containing 10% heat-inactivated FBS, both from Wisent, St-Bruno, QC, Canada) and 50 μg/mL gentamycin sulfate (Sigma-Aldrich Canada, Oakville, ON, Canada). SEQ ID NOs: 1, 2 or 3 were added to give a final concentration of 100 μg/mL, and the cells were cultivated for 48 h. Cytokines (IL-1β, IL-2, IL-6, IL-10 and IL-12p40) in the supernatant at the end of incubation were determined by ELISA using a cytokine capture assay process (Biosource, Camarillo, Calif.). SEQ ID NO: 32 CpG 2006 ODN (1-100 μg/mL, 5′-[…]-3′, […]), MCC (1-100 μg/mL) and LPS (10 μg/mL) were used as positive controls.
Substance,"Cytokine, IL-6 (human PBMC [1]) [pg/mL]","Cytokine, IL-10 (human PBMC [1]) [pg/mL]","Cytokine, MCP-1 (human PBMC [1]) [pg/mL]","Cytokine, RANTES (CCL5) (human PBMC [1]) [pg/mL]","Chemokine (MCP-1, RANTES) inducing activity towards human PBMC (in words) (human PBMC [1])",Interleukin (cytokine) inducing activity towards human PBMC (in words) (human PBMC [1]),"TLR activation, Optical Density at 650 nm, hTLR9, positive control (human TLR9)","Number of individuals responding, IL-1β (human PBMC [2])","Number of individuals responding, IL-2 (human PBMC [2])","Number of individuals responding, IL-6 (human PBMC [2])","Number of individuals responding, IL-10 (human PBMC [2])","Number of individuals responding, IL-12p40 (human PBMC [2])"
"5′-GGGGACGACGTCGTCGGGGGG-3′ (DNA dG*dG*dG*dG*dA*dC*dG*dA*dC*dG*dT*dC*dG*dT*dC*dG*dG*dG*dG*dG*dG) [SEQ ID NO: 33, reference compound]",9,0,573,105,strong MCP-1 inducing activity,did not induce cytokines,,,,,,
"5′-TCGTCGTTTTCGGCGGCCGCCG-3′ (DNA dT*dC*dG*dT*dC*dG*dT*dT*dT*dT*dC*dG*dG*dC*dG*dG*dC*dC*dG*dC*dC*dG) [SEQ ID NO: 35, reference compound]",42,0,906,136,strong MCP-1 inducing activity,did not induce cytokines,,,,,,
"5′-TCGTCGTTTTGTCGTTTTGTCGTT-3′ [SEQ ID NO: 32 CpG 2006, reference compound]",,,,,,,1.904,0/3,0/3,3/3,2/3,1/3
"5′-TCGTCGTTTTGTCGTTTTGTCGTT-3′ [SEQ ID NO: 34, reference compound]",41,2,1270,187,strong MCP-1 inducing activity,did not induce cytokines,,,,,,
"5′-TGCTGCTTTTTGCTGGCTTTTT-3′ (DNA dT*dG*dC*dT*dG*dC*dT*dT*dT*dT*dT*dG*dC*dT*dG*dG*dC*dT*dT*dT*dT*dT) [SEQ ID NO: 31, reference compound]",43,0,343,275,had chemokine-inducing activity,,,,,,,
"GGGTGGIII (DNA GGGTGGNNN; Three 3' inosines, sugar and linkages not given here, further chemistry not given here) [SEQ ID NO: 7, 5′-OH, 3′-OH non-DNA base-containing polynucleotide]",1,0,79,71,marginal or no,marginal or no,,,,,,
"GGGTGGNebNebNeb (DNA GGGTGGNNN; Three 3' nebularines, sugar and linkages not given here, further chemistry not given here) [SEQ ID NO: 5, 5′-OH, 3′-OH non-DNA base-containing polynucleotide]",845,13,3600,202,strong,strong,,,,,,
"GGGTGGUUU (DNA GGGTGGNNN; Three 3' uracils, sugar and linkages not given here, further chemistry not given here) [SEQ ID NO: 9, 5′-OH, 3′-OH non-DNA base-containing polynucleotide]",133,1,914,117,strong MCP-1 inducing activity,,,,,,,
"GIG (DNA GNG; Central inosine, sugar and linkages not given here, further chemistry not given here) [SEQ ID NO: 6, 5′-OH, 3′-OH non-DNA base-containing polynucleotide]",0,0,48,137,marginal or no,marginal or no,,,,,,
"GNebG (DNA GNG; Central nebularine, sugar and linkages not given here, further chemistry not given here) [SEQ ID NO: 4, 5′-OH, 3′-OH non-DNA base-containing polynucleotide]",1960,28,7000,211,strong,strong,,,,,,
"GUG (DNA GNG; Central uracil in DNA, sugar and linkages not given here, further chemistry not given here) [SEQ ID NO: 8, 5′-OH, 3′-OH non-DNA base-containing polynucleotide]",0,0,78,78,marginal or no,marginal or no,,,,,,
